Laboratory results published in the supplement of paper PMC10307832.

Columns and labels:
Test in all cases: relative viability (nuclei count vs DMSO), 5 days (fraction); higher = more cells survive
Tipifarnib + Luminespib = compound: Cn1cncc1[C@@](N)(c1ccc(Cl)cc1)c1ccc2c(c1)c(-c1cccc(Cl)c1)cc(=O)n2C [Tipifarnib] + CCNC(=O)c1noc(-c2cc(C(C)C)c(O)cc2O)c1-c1ccc(CN2CCOCC2)cc1 [Luminespib] (partner 0.01 µM)
Method in brief: (§1)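 Lung cancer cell lines in 1536-well plates were dosed by pin tool the day after seeding, either with one drug alone or with a fixed anchor-drug dose plus five library-drug doses (not always all listed) in √10 steps. After 5 days, cells were fixed and their nuclei stained in one step (final 0.05% Triton X-100, 1% formaldehyde, 1 ug/ml Hoechst), then counted on 4× images. Relative viability is the nuclei count in treated wells divided by that in vehicle wells. Values are medians of duplicate plates.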

Tipifarnib + OSI-027 = compound: Cn1cncc1[C@@](N)(c1ccc(Cl)cc1)c1ccc2c(c1)c(-c1cccc(Cl)c1)cc(=O)n2C [Tipifarnib] + COc1cccc2cc(-c3nc([C@H]4CC[C@H](C(=O)O)CC4)n4ncnc(N)c34)[nH]c12 [OSI-027] (partner 0.5 µM)
Method in brief: as §1

Tipifarnib + Lapatinib = compound: Cn1cncc1[C@@](N)(c1ccc(Cl)cc1)c1ccc2c(c1)c(-c1cccc(Cl)c1)cc(=O)n2C [Tipifarnib] + CS(=O)(=O)CCNCc1ccc(-c2ccc3ncnc(Nc4ccc(OCc5cccc(F)c5)c(Cl)c4)c3c2)o1 [Lapatinib] (partner 2 µM)
Method in brief: as §1

Tipifarnib + Linsitinib = compound: Cn1cncc1[C@@](N)(c1ccc(Cl)cc1)c1ccc2c(c1)c(-c1cccc(Cl)c1)cc(=O)n2C [Tipifarnib] + C[C@]1(O)C[C@@H](c2nc(-c3ccc4ccc(-c5ccccc5)nc4c3)c3c(N)nccn32)C1 [Linsitinib] (partner 1 µM)
Method in brief: as §1

Cell Line	relative viability (Tipifarnib + Luminespib; first compound 0.01 µM)	relative viability (Tipifarnib + Luminespib; first compound 0.03162 µM)	relative viability (Tipifarnib + Luminespib; first compound 0.1 µM)	relative viability (Tipifarnib + Luminespib; first compound 0.3162 µM)	relative viability (Tipifarnib + Luminespib; first compound 1 µM)	relative viability (Tipifarnib + OSI-027; first compound 0.01 µM)	relative viability (Tipifarnib + OSI-027; first compound 0.03162 µM)	relative viability (Tipifarnib + OSI-027; first compound 0.1 µM)	relative viability (Tipifarnib + OSI-027; first compound 0.3162 µM)	relative viability (Tipifarnib + OSI-027; first compound 1 µM)	relative viability (Tipifarnib + Lapatinib; first compound 0.01 µM)	relative viability (Tipifarnib + Lapatinib; first compound 0.03162 µM)	relative viability (Tipifarnib + Lapatinib; first compound 0.1 µM)	relative viability (Tipifarnib + Lapatinib; first compound 0.3162 µM)	relative viability (Tipifarnib + Lapatinib; first compound 1 µM)	relative viability (Tipifarnib + Linsitinib; first compound 0.01 µM)	relative viability (Tipifarnib + Linsitinib; first compound 0.03162 µM)	relative viability (Tipifarnib + Linsitinib; first compound 0.1 µM)	relative viability (Tipifarnib + Linsitinib; first compound 0.3162 µM)	relative viability (Tipifarnib + Linsitinib; first compound 1 µM)
NCI-H2087	0.185	0.154	0.165	0.141	0.152	0.464	0.205	0.232	0.161	0.164	0.934	0.493	0.475	0.404	0.344	0.797	0.583	0.514	0.5	0.447
NCI-H2228	0.126	0.126	0.165	0.145	0.157	0.502	0.427	0.363	0.214	0.168	1.02	0.705	0.782	0.444	0.315	0.771	0.416	0.611	0.382	0.494
NCI-H727	0.341	0.401	0.533	0.462	0.432	0.599	0.535	0.459	0.477	0.427	1.01	0.843	0.755	0.578	0.607	0.285	0.334	0.321	0.3	0.259
NCI-H650	0.888	0.697	0.61	0.57	0.442	0.486	0.375	0.297	0.305	0.266	0.719	0.837	0.599	0.434	0.345	0.825	0.706	0.662	0.526	0.348
NCI-H520	0.235	0.233	0.207	0.207	0.23	0.214	0.262	0.187	0.19	0.199	0.996	0.79	0.838	0.708	0.321	1.11	0.849	0.987	0.673	0.737
EBC-1	–	–	–	–	–	–	–	–	–	–	0.199	0.214	0.2	0.188	0.215	0.854	0.288	0.332	0.265	0.212
NCI-H661	0.898	0.844	0.847	0.713	0.669	0.696	0.601	0.439	0.33	0.339	0.636	0.56	0.375	0.424	0.397	0.754	0.616	0.502	0.511	0.438
NCI-H1299	–	–	–	–	–	–	–	–	–	–	0.998	0.9	0.915	0.845	0.836	1.06	0.886	0.906	0.803	0.635
LK-2	0.191	0.172	0.207	0.172	0.175	0.183	0.193	0.195	0.165	0.164	0.824	0.801	0.8	0.678	0.629	0.499	0.506	0.399	0.379	0.487
NCI-H1993	0.697	0.644	0.57	0.504	0.481	0.469	0.613	0.531	0.644	0.604	0.747	0.835	0.699	0.716	0.779	0.772	0.746	0.73	0.732	0.789
NCI-H2170	0.406	0.555	0.619	0.282	0.691	0.668	0.678	0.583	0.55	0.353	0.245	0.271	0.272	0.265	0.248	–	–	–	–	–
NCI-H1648	–	–	–	–	–	0.268	0.258	0.271	0.307	0.259	–	–	–	–	–	–	–	–	–	–
LCLC-103H	0.991	0.892	0.693	0.662	0.521	0.383	0.445	0.372	0.363	0.31	–	–	–	–	–	1.04	1.02	1.02	0.802	0.913
NCI-H441	0.39	0.355	0.242	0.315	0.267	0.791	0.255	0.393	0.326	0.272	–	–	–	–	–	0.67	0.455	0.413	0.402	0.33
NCI-H1650	0.19	0.208	0.189	0.203	0.184	0.407	0.17	0.305	0.26	0.196	0.687	0.643	0.486	0.376	0.211	–	–	–	–	–
SW 900	0.188	0.188	0.196	0.167	0.185	0.309	0.1	0.27	0.189	0.18	–	–	–	–	–	–	–	–	–	–
IA-LM	–	–	–	–	–	–	–	–	–	–	0.295	0.192	0.215	0.144	0.156	0.329	0.285	0.332	0.288	0.189
HCC-366	–	–	–	–	–	1.01	0.778	0.265	0.18	0.0734	0.981	0.822	0.345	0.235	0.039	0.619	0.487	0.343	0.206	0.0767
NCI-H522	0.831	1.33	1.18	1.08	1.27	0.66	0.709	0.725	0.584	0.615	–	–	–	–	–	–	–	–	–	–
HCC-78	–	–	–	–	–	0.325	0.376	0.354	0.373	0.308	0.661	0.633	0.514	0.54	0.37	0.607	0.565	0.562	0.354	0.361
